These results are taken from US20180360953A1 (priority 2015, published 2018).

Experiment [1] has as its system spleen cells. Format: cell-based, mice. The note with it: 100 μM.
Experiment [2] relates to spleen cells. The class given is cell-based, mice.
Experiment [3] relates to spleen cells. The class given is cell-based, mice. The settings on record: spleen cells 24 hrs; Roflumilast 6.5 μM, Sivelestat 46 μM, Sulfasalazine 100 uM, Aspirin 100 μM. On the procedure:
In this example, the signaling induced by neutrophil inhibitors were examined to provide insight into mechanisms used to promote immunoglobulin class switching and production of IgG and/or IgA antibodies. In these experiments, the spleen cells of nice mice were cultured 24 hrs without or with neutrophil inhibitor (roflumilast (Phosphodiesterase-4 inhibitor), sivelestat (Neutrophil elastase inhibitor), sulfasalazine (Neutrophil NET inhibitor), or aspirin (COX inhibitor)). Gene expression was analyzed by qRT-PCR for BAFF, AID, TGFb, and IL-10. Mice were divided into 5 groups: (1) Control (Media) (2) Roflumilast (6.5 μM) (3) Sivelestat (46 μM) (4) Sulfasalazine (100 uM) and (5) Aspirin (100 μM).

The subject of experiment [4] is Spleen cells of naïve C57BL/6 mice. The class given is cell-based.
Experiment [5] deals with mesenteric lymph node cells. Format: cell-based, mice. The note with it: 5-days culture. On the procedure:
(§1) Single cell suspensions of spleen cells, mesenteric lymph nodes were resuspended (2×10^6 cells/ml) in RPMI 1640 supplemented with L-glutamine, HEPES, penicillin, streptomycin and 10% heat-inactivated fetal calf serum. Cells were cultured for 1, 5, or 6 days at 37° C. and 5% CO2 in the presence of various doses of the neutrophil elastase inhibitor Sivelestat (ONO-5046, C20H22N2O7S) or Alvelestat (AZD9668, C25H22F3N5O4S) (Selleckchem, Houston, Tex.). In selected experiments, neutrophil elastase inhibitors were added to cells cultured in the presence of Salmonella typhimurium LPS (0.05 μg/ml, Sigma, Saint Louis, Mo.).
(§2) […] described by ELISA, using goat anti-murine IgM, IgG, and IgA antibodies (Southern Biotech, Birmingham, Ala.) and extrapolation against standards.

Experiment [6] concerns spleen cells. Format: cell-based, mice. The settings on record: 5 days; for IgG and IgA secreted in culture supernatants of spleen cells / IgM secreted in culture supernatants of spleen cells: increasing doses. As for the experimental part: as §1, §2
Experiment [7] relates to Bacillus anthracis lethal toxin (LeTx). The class given is in vivo, mice. The settings on record: Day 21.
Experiment [8] concerns PA-specific Ab responses. Further details: species or system mice. The settings on record: mouse, in vivo.
Experiment [9] deals with OVA-specific Ab responses. Further details: species or system mice. The settings on record: mouse, in vivo, ip.
Experiment [10] concerns mucosal homing receptors CCR9 and a4b7. Further details: species or system mice. The note with it: mouse, ip.
For experiment [11], the system named is spleen cells. Format: cell-based, mice. The source holds these as a separate data set.
Experiment [12] has as its system spleen cells. Format: cell-based, mice. The note with it: 24 hrs, 48 μM.
Experiment [13] deals with OVA-specific Ab responses. Further details: species or system mice. The note with it: mouse, in vivo.
Experiment [14] relates to mucosal homing receptors CCR9 and a4b7. Format: cell-based. The settings on record: spleen and mesenteric lymph node cells of naïve mice, 48 hours, Alvelestat 50 or 200 mM. As for the experimental part:
Spleen (A) and mesenteric lymph node (B) cells of naïve mice were cultures for 48 hours in the absence or in the presence of the NEI Alvelestat ([…]). The expression of mucosal homing receptors CCR9 and a4b7 by B lymphocytes, and T lymphocytes was analyzed by flow cytometry.

The subject of experiment [15] is CD4+ T helper cells. Further details: species or system mice. The note with it: mouse, in vivo.
In experiment [16] the test system is PA-specific Ab responses. Further details: species or system mice. The note with it: mouse, in vivo. This is another data set of the same source.
Experiment [17] has as its system F1-V-specific Ab responses. Further details: species or system mice. The note with it: mouse, in vivo.
Experiment [18] concerns neutrophils and mast cells. The note with it: cited from earlier work.

“Also recorded” adds a separate entry of the source. Like-named read-outs stand apart in the source and are kept apart here.

As to `CC(=O)Oc1ccccc1C(=O)O` [Acetyl-salicylic acid (ASA), acetylsalicylic acid], the “IgA secretion by spleen cells (frequency of IgA secreting cells, ELISPOT)” value (shortened to “IgA secretion by spleen cells”) in experiment [1] was “enhanced”. Moreover, the “IgG and IgA production (immunofluorescence on cytospins)” value in experiment [2] is “enhanced”. Moreover, in [3], the “genes involved in immunoglobulin class switching (BAFF, AID, TGFb, and IL-10)” value (shortened to “genes involved”) was “differentially regulate”. Also, the “Relative stimulation of IgA secretion” value in experiment [4] was “++”. Also, the entries for the “Dose effect (Relative stimulation of IgA)” value in experiment [4] (10 uM), in [4] (100 uM) and in experiment [4] (500 uM) were “uM (++)”, “uM (++)” and “uM (+)”, respectively.

With `Cc1c(-c2ccnn2C)cc(C(=O)NCc2ccc(S(C)(=O)=O)cn2)c(=O)n1-c1cccc(C(F)(F)F)c1` [Alvelestat, alvelestat], the “IgG and IgA in culture supernatants of mesenteric lymph node cells” value in experiment [5] is listed as “higher levels”. For the same molecule, the “IgA production by spleen cells cultured in the presence of LPS” value in [6] (LPS 0.05 μg/ml) was “significant increase”. Further, in experiment [6], the “IgG and IgA secreted in culture supernatants of spleen cells” value is recorded as “increased”; the “IgM secreted in culture supernatants of spleen cells” value is on record as “reduced”. Further, the “serum anti-PA neutralizing antibody titers” value in experiment [7] (sublingual EdTx and NEI, listed as NEI) is given as “significantly increased; also recorded: enhanced neutralizing activity”. In addition, in [7] (sublingual antigen plus NEI), the “serum anti-PA neutralizing antibodies” value was “low and comparable levels”. Further, in experiment [8], the “High affinity PA-specific IgG1 and IgA Ab responses” value was “high affinity antibodies; also recorded: promotes high affinity Abs”; the “titers of PA-specific IgG1 and IgA responses” value was “enhanced”. Moreover, in [9], the “kinetic and magnitude of OVA-specific serum IgG” value is “enhances”; the “mucosal IgA responses in the gut (OVA-specific, fecal extracts)” value is listed as “promotes”. For the same molecule, the “expression of gut homing receptors (CCR9 and a4b7) by B and T cells in vivo” value in experiment [10] is recorded as “promotes expression”. Besides, in experiment [11], the “frequency of CD4+ T cells” value is “increased”. Further, the “AID mRNA synthesis” value in [12] is on record as “stimulated”. Besides, in experiment [13], the “OVA-specific serum IgE response” value was “no IgE response was detected”, the “OVA-specific serum IgE responses induced by EdTx” value is “significantly reduced; also recorded: suppresses”, the “OVA-specific serum IgG1 responses in the absence of EdTx” value is listed as “increased” and the “OVA-specific serum IgG1 responses induced by EdTx” value is “increased the magnitude; also recorded: enhances”. Also, in experiment [13], the “OVA-specific serum IgG2a/c, or IgG3 in the absence of EdTx” value is listed as “no evidence that the NEI enhanced”; the “OVA-specific serum IgG2b responses induced by EdTx as adjuvant” value is “significantly increased; also recorded: enhances”; the “antigen-specific IgA in gut (fecal extracts)” value is “did not stimulate”; the “antigen-specific IgA responses in vaginal washes” value is recorded as “only non-significant levels”. Moreover, in experiment [13], the “fecal IgA responses” value is on record as “resulted in induction of fecal IgA responses” and the “vaginal IgG responses induced by EdTx as adjuvant” value is given as “enhance”. Besides, the “expression of gut homing receptors (CCR9 and a4b7) by B and T cells in vitro” value in experiment [14] was “promotes expression”. Further, in experiment [15], the “all CD4+ T helper cytokine responses, including Th1, Th2, Th17 and Tfh” value is “significantly increased”; the “frequencies of IL-4+ CD4+ cells” value was “lower frequencies”; the “frequencies of IL-10+ CD4+ T cells and IL-17+ CD4+ T cells” value was “higher frequencies”; the “frequencies of Th1 cells (IFNγ+ CD4+ T cells and TNFα+ CD4+ T cells)” value is listed as “same frequencies”. For the same molecule, in [15], the “frequencies of Th2 cells producing IL-5” value was “similar” and the “frequencies of antigen-specific IL-21+ CD4 T cells” value was “same frequencies”.

On to `O=C(Nc1c(Cl)cncc1Cl)c1ccc(OC(F)F)c(OCC2CC2)c1` [Roflumilast], for which, in [3], the “genes involved” value is “differentially regulate”. Also, the “Relative stimulation of IgA secretion” value in experiment [4] is given as “+”. The “Dose effect (Relative stimulation of IgA)” value is “uM (−)” in experiment [4] (0.062 uM), “uM (−)” in [4] (0.62 uM) and “uM (+)” in experiment [4] (6.2 uM).

As for `CC(C)(C)C(=O)Oc1ccc(S(=O)(=O)Nc2ccccc2C(=O)NCC(=O)O)cc1` [Sivelestat, sivelestat], the “secretion of IgG and IgA by splenocytes cultured in the presence of LPS” value in [6] (LPS 0.05 μg/ml) is “increased”. In experiment [6], the “IgG and IgA secreted in culture supernatants of spleen cells” value is given as “dose-dependent increase”; the “IgM secreted in culture supernatants of spleen cells” value is “reduced”. Also, in experiment [16], the “PA-specific salivary IgA response” value is listed as “enhances”, the “PA-specific serum IgA response” value is “enhances”, the “PA-specific serum IgG1 response” value is listed as “enhances” and the “PA-specific serum IgG2c response” value is “did not affect”. Besides, the “IgA secretion by spleen cells” value in [1] is given as “enhanced”. In addition, in experiment [2], the “IgG and IgA production (immunofluorescence on cytospins)” value is given as “larger increases”. For the same molecule, in experiment [3], the “genes involved” value is on record as “differentially regulate”. Also, the “IgA responses by a sublingual vaccine” value in experiment [17] is “promotes”. For the same molecule, the “AID mRNA synthesis” value in [12] was “stimulated”. In experiment [4], the “Relative stimulation of IgA secretion” value was “++”. In [4] (4.6 uM), the “Dose effect (Relative stimulation of IgA)” value is “uM (+)”. Also, in [4] (46 uM), the “Dose effect (Relative stimulation of IgA)” value is reported as “uM (++)”. For the same molecule, the “Dose effect (Relative stimulation of IgA)” value in [4] (230 uM) is on record as “uM (++)”.

On to `O=C(O)c1cc(/N=N/c2ccc(S(=O)(=O)Nc3ccccn3)cc2)ccc1O` [Sulfasalazine, sulfasalazine], for which the “ET formation in neutrophils and mast cells” value in experiment [18] is recorded as “significantly inhibit”. For the same molecule, the “IgA secretion by spleen cells” value in experiment [1] is reported as “enhanced”. Also, in [3], the “genes involved” value was “differentially regulate”. For the same molecule, the “Relative stimulation of IgA secretion” value in experiment [4] is reported as “+++”. Besides, the “Dose effect (Relative stimulation of IgA)” value in [4] (10 uM) is listed as “uM (++)”; in experiment [4] (100 uM), “uM (+++)”; in experiment [4] (1000 uM), “uM (+)”.

Turning to `O=C1CCC(N2C(=O)c3ccccc3C2=O)C(=O)N1` (stereo not drawn) [thalidomide], the “ET formation in neutrophils and mast cells” value in experiment [18] was “significantly inhibit”.
